IC50 data for 7 molecules are collected here from patent US20250368648A1, “MULTI-CYCLIC IRAK AND FLT3 INHIBITING COMPOUNDS AND USES THEREOF” (CHILDREN'S HOSPITAL MEDICAL CENTER, priority 2022, published 2025).

The structures appear in SMILES notation. Where two headings read alike, the source gives them in different places.

Type in all cases: cell-based
One assay deals with T1, IRAK4 (Homo sapiens, UniProt Q9NWZ3).
T1 sequence (Q9NWZ3 1-460): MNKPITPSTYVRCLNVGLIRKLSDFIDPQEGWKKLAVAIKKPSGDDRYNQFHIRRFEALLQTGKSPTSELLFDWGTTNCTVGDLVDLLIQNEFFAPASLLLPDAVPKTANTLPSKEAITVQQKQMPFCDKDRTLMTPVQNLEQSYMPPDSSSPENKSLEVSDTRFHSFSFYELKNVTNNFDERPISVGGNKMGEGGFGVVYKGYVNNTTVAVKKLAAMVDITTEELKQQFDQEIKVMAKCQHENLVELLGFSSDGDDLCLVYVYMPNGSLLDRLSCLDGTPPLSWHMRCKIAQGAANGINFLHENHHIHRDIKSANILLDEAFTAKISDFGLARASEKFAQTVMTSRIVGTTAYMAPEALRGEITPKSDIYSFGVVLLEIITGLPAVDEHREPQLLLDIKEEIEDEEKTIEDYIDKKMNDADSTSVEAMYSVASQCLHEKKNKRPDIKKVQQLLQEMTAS
The assay can be described thus: Reaction Biology NanoBRET target engagement assay, IRAK4. The following applies: HEK-293 cells transfected with Kinase-NanoLuc fusion vector, live cells. The source says:
The NanoBRET assay measures kinase engagement in real time in the context of the intact cell. Unlike the previously described biochemical kinase assay methodologies in Examples 47 and 48, the NanoBRET assay measures the binding and activity characteristics under equilibrium conditions using full-length kinases in the presence of cellular concentrations of ATP in live, uncompromised cells. […] The assay uses a Kinase-NanoLuc® fusion vector expressing a kinase protein to which a luciferase tag has been added, a cell-permeant fluorescent NanoBRET™ tracer, a NanoLuc® substrate, and an extracellular NanoLuc® inhibitor. Upon expression of the luciferase-tagged kinase, cells will produce a strong BRET signal only in the presence of the NanoBRET™ tracer. The extracellular NanoLuc® inhibitor ensures that the BRET signal observed emanates only from live cells. Because the BRET signal has tight distance constraints, addition of the test compound will decrease the BRET signal if the compound competes with the NanoBRET™ tracer for binding to the kinase domain. Under the appropriate tracer conditions established by the manufacturer, quantitative intracellular affinity and relative potency can then be determined using Mass Action model equations.
HEK-293 cells were purchased from ATCC. FuGENEHD Transfection Reagent, Kinase-NanoLucfusion plasmids, Transfection Carrier DNA, NanoBRETTracers and dilution buffer, NanoBRETNano-Glo Substrate, Extracellular NanoLucInhibitor were obtained from Promega.
Assays were conducted following Promega assay protocol with some modifications. HEK-293 Cells were transiently transfected with Kinase-NanoLucFusion Vector DNA by FuGENEHD Transfection Reagent. Testing compounds were delivered into 384 well assay plate by Echo 550 (LabcyteInc, Sunnyvale, CA). Transfected cells were harvested and mixed with NanoBRETTracer Reagent and dispensed into 384 well plates and incubated at 37° C. in 5% CO2 cell culture incubator for 1 hour. The NanoBRETNano-Glo Substrate plus Extracellular NanoLucInhibitor Solution were added into the wells of the assay plate and incubated for 2-3 minutes at room temperature. The donor emission wavelength (460 nm) and acceptor emission wavelength (600 nm) were measured in the EnVisionplate reader. The BRET Ratios were calculated. BRET Ratio=[(Acceptor sample÷Donor sample)−(Acceptor no-tracer control÷Donor no-tracer control)]. The IC50 values of compounds were calculated with Prism GraphPad program.
• 1). Cultivate HEK-293 cells (70-80% confluence) appropriately prior to assay. Trypsinize and collect HEK-293 cells. • 2). Prepare lipid: DNA complexes as follows: • a. Prepare a 10 μg/ml solution of DNA in Opti-MEM without serum that consists of the following ratios of carrier DNA and DNA encoding NanoLuc® fusion. […] of Transfection Carrier DNA, […] of NanoLuc fusion vector DNA and 1 mL of Opti-MEM without phenol red. Mix thoroughly. • b. Add 30 μl of FuGENE HD Transfection Reagent into each milliliter of DNA mixture to form lipid: DNA complex. • c. Mix by inversion 10 times. • d. Incubate at ambient temperature for 20 minutes to allow complexes to form. • 3). In a sterile, conical tube, mix 1 part of lipid:DNA complex with 20 parts of HEK-293 cells in suspension. Mix gently by inversion 5 times. • 4). Dispense cells+lipid: DNA complex into a sterile tissue culture dish and incubate for 22-24 hours.
Each test compound is delivered from the compound source plate to the wells of 384-well white NBS plate by Echo 550.
3. Preparation of Cells with NanoBRET™ Tracer Reagent • 1). Remove medium from dish with transfected HEK-293 cells via aspiration, trypsinize and allow cells to dissociate from the dish. • 2). Neutralize trypsin using medium containing serum and centrifuge at 200× g for 5 minutes to pellet the cells. Adjust the cell density to […] cells/mL in Opti-MEM without phenol red. • 3). Prepare Complete 20× NanoBRET™ Tracer Reagent with Tracer Dilution Buffer. • 4). […]
On the technique in general: BRET reads energy transfer from a luciferase to a nearby fluorophore.

The next assay deals with MOLM14 D835Y cells. The assay can be described thus: MOLM14 D835Y cell viability assay (Cell Titer Glo).
The next assay deals with NF-κB. Put plainly: NF-kB assay in THP-1-Blue NF-κB cells (SEAP reporter). The method, then:
THP-1-Blue NF-κB cells (InvivoGen) carrying a stable integrated NF-κB-inducible secreted embryonic alkaline phosphatase (SEAP) reporter construct were plated at a concentration of 1×10^5 cells per well. The cells were stimulated with Pam3CSK4 (1 ng/mL) or hIL1B (Ing/mL). After 10-20 minutes, the cells were then treated with vehicle (DMSO) or serial dilutions of the test compounds (10 doses tested for each test compound, with a 1:10 dilution series starting at 1 μM or 3 μM) with a final volume of 200 μL for 24 hours at 37° C. After 24 hours, the cells were centrifuged and 20 IL supernatant was incubated with 180 μL QUANTI-Blue reagent at 37° C. for 30-60 minutes. The levels of NF-κB-induced was measured in a microplate reader at 620 nm.

Where [1] appears, read: THP-1-Blue NF-κB cells stimulated with Pam3CSK4, 24 hours, read-out: NF-κB Pam3SCK4 IC50.
The mark [2] stands for this setting: THP-1-Blue NF-κB cells stimulated with hIL1B, 24 hours, read-out: NF-κB IL1B IC50.

For the molecule `COc1cc2ncc(-c3nc(N[C@H]4CNC[C@@H]4F)c(F)cc3F)n2nc1C1CC2(CCC2)C1` [Compound 12a, 3,5-difluoro-N-((3S,4S)-4-fluoropyrrolidin-3-yl)-6-(7-methoxy-6-(spiro[3.3]heptan-2-yl)imidazo[1,2-b]pyridazin-3-yl)pyridin-2-amine], on IRAK4, 71 nM corresponded to half-maximal inhibition (IC50).

As to `COc1cc2ncc(-c3nc(N[C@@H]4CCCNC4)c(F)cc3F)n2nc1C(C)(O)C(F)(F)F` (single isomer, unassigned) [Compound 81a], the figures for the concentration for half-maximal inhibition (IC50) against IRAK4 and in the assay with MOLM14 D835Y cells (48 hours) were 0.6 nM and 6 nM, respectively.

As to `COc1cc2ncc(-c3nc(N[C@H]4CNCC[C@@H]4F)c(F)cc3F)n2nc1C(C)(O)C(F)(F)F` (single isomer, unassigned) [Compound 77a], the IC50 (commonly the concentration that gives 50% inhibition) came out at 0.4 nM at IRAK4, 166 nM in the assay on NF-κB (setting [1]), 254 nM in the assay on NF-κB (setting [2]) and 8 nM in the assay with MOLM14 D835Y cells (48 hours).

`COc1cc2ncc(-c3nc(N[C@H]4CNCC[C@@H]4F)c(F)cc3F)n2nc1C1CC2(CCC2)C1` [Compound 10a, 3,5-difluoro-N-((3S,4S)-4-fluoropiperidin-3-yl)-6-(7-methoxy-6-(spiro[3.3]heptan-2-yl)imidazo[1,2-b]pyridazin-3-yl)pyridin-2-amine] returned an IC50 against IRAK4 of 64 nM.

`COc1cc2ncc(-c3nc(N[C@H]4CNC[C@@H]4F)c(F)cc3F)n2nc1C(C)(O)C(F)(F)F` (single isomer, unassigned) [Compound 80a]: the IC50 on IRAK4 was found to be 5 nM; with MOLM14 D835Y cells (48 hours) it was 23 nM.

For the molecule `COc1cc2ncc(-c3nc(N[C@H]4CNCC[C@@H]4F)c(F)cc3F)n2nc1C1CCC1` [Compound 15a, 6-(6-cyclobutyl-7-methoxyimidazo[1,2-b]pyridazin-3-yl)-3,5-difluoro-N-((3S,4S)-4-fluoropiperidin-3-yl)pyridin-2-amine], the IC50 against IRAK4 stood at 1 nM; with NF-κB (setting [1]), 108 nM; in the assay on NF-κB (setting [2]) it was 136 nM; in the assay with MOLM14 D835Y cells (Homo sapiens, MOLM-14, 48 h), 18 nM.

In the case of `COc1cc2ncc(-c3nc(N[C@H]4CNCC[C@@H]4F)c(F)cc3F)n2nc1C12CC(C1)C2` [Compound 67a, 6-(6-(bicyclo[1.1.1]pentan-1-yl)-7-methoxyimidazo[1,2-b]pyridazin-3-yl)-3,5-difluoro-N-((3S,4S)-4-fluoropiperidin-3-yl)pyridin-2-amine], the 50% inhibitory concentration (IC50) was 5 nM on IRAK4, 284 nM in the assay with NF-κB (setting [1]) and 331 nM with NF-κB (setting [2]).
